Assays:
210K ß-glucosidase [1] = system: T1, 210K ß-glucosidase; test: 4-methylumbelliferone release, fluorometric; Lineweaver-Burk; format: biochemical, Aplysia kurodai; conditions: 37°C
T1 construct: gene 210K BGL; native, purified from digestive fluid; 210 kDa by SDS-PAGE; glycoprotein
Source text: 4-methylumbelliferone release, fluorometric; Lineweaver-Burk on 210K ß-glucosidase

210K ß-glucosidase [2] = biological target: T1, 210K ß-glucosidase; test: inhibition of 4MU-ß-glucoside hydrolysis, fluorometric; Cornish-Bowden; format: biochemical, Aplysia kurodai; conditions: substrate 4MU-ß-glucoside; 37°C; mixed
Source text: inhibition of 4MU-ß-glucoside hydrolysis, fluorometric; Cornish-Bowden on 210K ß-glucosidase

110K ß-glucosidase [3] = biological target: T2, 110K ß-glucosidase (Aplysia kurodai, UniProt A0A1V1FXL2); test: inhibition of 4MU-ß-glucoside hydrolysis, fluorometric; Lineweaver-Burk; format: biochemical; conditions: substrate 4MU-ß-glucoside; 37°C; competitive
T2 construct: gene ApBGL; native, purified from digestive fluid; 110 kDa by SDS-PAGE; glycoprotein
Source text: inhibition of 4MU-ß-glucoside hydrolysis, fluorometric; Lineweaver-Burk on 110K ß-glucosidase

110K ß-glucosidase [4] = biological target: T2, 110K ß-glucosidase; test: inhibition of 4MU-ß-glucoside hydrolysis; format: biochemical; conditions: substrate 4MU-ß-glucoside; compound name doubtful (preceding sentence speaks of conduritol B epoxide)
210K ß-glucosidase [5] = system: T1, 210K ß-glucosidase; test: cellobiose hydrolysis; Lineweaver-Burk; format: biochemical, Aplysia kurodai; conditions: read-out: 210 K; 37°C; printed unit doubtful: the printed Vmax/Km scale implies mM; heading: 210 K

T2 sequence (A0A1V1FXL2 24-994): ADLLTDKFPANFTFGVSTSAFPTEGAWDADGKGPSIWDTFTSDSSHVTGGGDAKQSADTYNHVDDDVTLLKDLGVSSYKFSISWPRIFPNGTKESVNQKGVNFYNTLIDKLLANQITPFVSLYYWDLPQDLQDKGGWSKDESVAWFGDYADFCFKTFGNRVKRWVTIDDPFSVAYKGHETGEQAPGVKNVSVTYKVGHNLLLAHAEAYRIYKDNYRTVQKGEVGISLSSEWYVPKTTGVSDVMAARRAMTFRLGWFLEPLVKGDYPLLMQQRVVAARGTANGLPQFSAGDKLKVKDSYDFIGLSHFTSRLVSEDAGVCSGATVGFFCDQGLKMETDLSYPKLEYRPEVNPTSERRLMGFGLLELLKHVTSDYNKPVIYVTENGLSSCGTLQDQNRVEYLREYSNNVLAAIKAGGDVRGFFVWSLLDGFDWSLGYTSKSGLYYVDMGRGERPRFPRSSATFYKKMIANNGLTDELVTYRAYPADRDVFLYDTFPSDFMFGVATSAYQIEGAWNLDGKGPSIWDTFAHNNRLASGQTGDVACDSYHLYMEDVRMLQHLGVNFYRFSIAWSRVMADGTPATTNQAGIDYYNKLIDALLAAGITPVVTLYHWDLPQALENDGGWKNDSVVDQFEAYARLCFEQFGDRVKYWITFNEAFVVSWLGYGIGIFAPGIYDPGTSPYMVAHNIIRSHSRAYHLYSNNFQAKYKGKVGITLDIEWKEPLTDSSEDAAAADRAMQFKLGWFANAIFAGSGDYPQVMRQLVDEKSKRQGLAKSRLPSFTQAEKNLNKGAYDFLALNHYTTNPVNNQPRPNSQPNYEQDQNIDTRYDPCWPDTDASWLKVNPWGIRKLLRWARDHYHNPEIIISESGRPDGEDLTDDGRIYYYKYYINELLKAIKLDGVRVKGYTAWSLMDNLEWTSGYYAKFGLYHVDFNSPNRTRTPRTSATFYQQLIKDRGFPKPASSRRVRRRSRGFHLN

In the case of `Cc1cc(=O)oc2cc(O[C@@H]3O[C@H](CO)[C@H](O)[C@H](O)[C@H]3O)ccc12` [4MU-ß-galactoside], the Km (210K ß-glucosidase [1]) is reported as 199 ± 5 µM.
With `O=C1O[C@H](CO)[C@@H](O)[C@H](O)[C@H]1O` [D-glucono-1,5-lactone] the Ki (210K ß-glucosidase [2]) was 8.1 ± 0.2 µM and the Ki (110K ß-glucosidase [3]) was 3.66 ± 0.47 µM.
For Conduritol B-sulfate, the “% inhibition at 10 mM” value (110K ß-glucosidase [4]) was 48%.
With `Cc1cc(=O)oc2cc(O[C@@H]3O[C@H](CO)[C@@H](O)[C@H](O)[C@H]3O)ccc12` [4MU-ß-glucoside] the Km (210K ß-glucosidase [1]) was 105 ± 11 µM.
Work on `OC[C@H]1O[C@@H](O[C@H]2[C@H](O)[C@@H](O)C(O)O[C@@H]2CO)[C@H](O)[C@@H](O)[C@@H]1O` (stereo partly drawn) [cellobiose] yielded a Km (210K ß-glucosidase [5]) of 1.93 ± 0.15 mM.

— paper PMC3675134, “Comprehensive Enzymatic Analysis of the Cellulolytic System in Digestive Fluid of the Sea Hare Aplysia kurodai. Efficient Glucose Release from Sea Lettuce by Synergistic Action of 45 kDa Endoglucanase and 210 kDa ß-Glucosidase” (PLoS ONE, 2013)
